Reference: ChEMBL document CHEMBL2074541, “TP-search Transporter Database” (Hepatology, 1999)

T1: Solute carrier organic anion transporter family member 1A1 (Rattus norvegicus, UniProt P46720)
T1 sequence (P46720 whole entry): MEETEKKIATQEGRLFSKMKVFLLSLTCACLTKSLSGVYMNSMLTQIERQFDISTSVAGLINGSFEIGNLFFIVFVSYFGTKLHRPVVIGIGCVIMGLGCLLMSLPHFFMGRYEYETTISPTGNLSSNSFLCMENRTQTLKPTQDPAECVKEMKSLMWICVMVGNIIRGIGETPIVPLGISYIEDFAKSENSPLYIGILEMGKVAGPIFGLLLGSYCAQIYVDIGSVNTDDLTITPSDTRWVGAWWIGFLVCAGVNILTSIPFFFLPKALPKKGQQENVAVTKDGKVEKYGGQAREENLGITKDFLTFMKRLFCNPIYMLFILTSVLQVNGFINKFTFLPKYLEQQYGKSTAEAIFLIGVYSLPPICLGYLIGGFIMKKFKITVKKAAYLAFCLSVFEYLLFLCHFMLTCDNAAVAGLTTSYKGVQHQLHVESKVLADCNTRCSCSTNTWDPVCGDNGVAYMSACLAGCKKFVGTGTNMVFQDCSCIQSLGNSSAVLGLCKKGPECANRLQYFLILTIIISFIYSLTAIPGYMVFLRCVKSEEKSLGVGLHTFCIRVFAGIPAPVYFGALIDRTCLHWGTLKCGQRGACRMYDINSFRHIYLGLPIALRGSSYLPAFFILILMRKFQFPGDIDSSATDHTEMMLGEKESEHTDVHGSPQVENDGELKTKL

B1: Solute carrier organic anion transporter family member 1A1 (Rattus norvegicus) (protein)
chain: T1 sequence (P46720 whole entry)

Assays:
Format in all cases: functional, cell-based
[1] = biological target: T1, Solute carrier organic anion transporter family member 1A1; assay: (§1) TP_TRANSPORTER: uptake in Oatp1-expressing HeLa cells
[2] = substrate: C[C@H](CCC(=O)NCCS(=O)(=O)O)C1CC[C@H]2[C@@H]3C[C@H](O)[C@@H]4C[C@H](O)CC[C@]4(C)[C@H]3CC[C@]12C; assay: as §1
[3] = substrate: C[C@H](CCC(=O)NCCS(=O)(=O)O)[C@H]1CC[C@H]2[C@@H]3[C@H](O)C[C@@H]4C[C@H](O)CC[C@]4(C)[C@H]3CC[C@]12C; assay: as §1
[4] = substrate: O=C1OC(c2ccc(O)c(S(=O)(=O)O)c2)(c2ccc(O)c(S(=O)(=O)O)c2)c2c(Br)c(Br)c(Br)c(Br)c21; assay: as §1

Row | Molecule | Activity [1] | Km [2] [µM] | Km [3] [µM] | Km [4] [µM]
1 | C[C@H](CCC(=O)O)[C@H]1CC[C@H]2[C@@H]3C[C@H](O)[C@@H]4C[C@H](O)CC[C@]4(C)[C@H]3CC[C@]12C [HYODEOXYCHOLIC_ACID] | substrate [+] |  |  | 
2 | C[C@H](CCC(=O)NCCS(=O)(=O)O)[C@H]1CC[C@H]2[C@@H]3CC[C@H]4C[C@H](O)CC[C@]4(C)[C@H]3C[C@@H](O)[C@]12C [TAUROLAGODEOXYCHOLATE] | substrate [+] |  |  | 
3 | C[C@H](CCC(=O)NCCS(=O)(=O)O)[C@H]1CC[C@H]2[C@@H]3C[C@@H](O)[C@@H]4C[C@H](O)CC[C@]4(C)[C@H]3CC[C@]12C [TAUROMUROCHOLATE] | substrate [+] |  |  | 
4 | B1 |  | 7.5 | 4.9 | 3.3
